The text below walks through data of US10065954B2, “Substituted imidazo[4,5-c]pyridines as SSAO inhibitors” (Proximagen Limited, priority 2014, dated 2018).

For the experiment, the target named is T1, purified recombinantly expressed human SSAO (Homo sapiens, UniProt Q16853).
T1 construct: made in house
T1 sequence (Q16853 1-763): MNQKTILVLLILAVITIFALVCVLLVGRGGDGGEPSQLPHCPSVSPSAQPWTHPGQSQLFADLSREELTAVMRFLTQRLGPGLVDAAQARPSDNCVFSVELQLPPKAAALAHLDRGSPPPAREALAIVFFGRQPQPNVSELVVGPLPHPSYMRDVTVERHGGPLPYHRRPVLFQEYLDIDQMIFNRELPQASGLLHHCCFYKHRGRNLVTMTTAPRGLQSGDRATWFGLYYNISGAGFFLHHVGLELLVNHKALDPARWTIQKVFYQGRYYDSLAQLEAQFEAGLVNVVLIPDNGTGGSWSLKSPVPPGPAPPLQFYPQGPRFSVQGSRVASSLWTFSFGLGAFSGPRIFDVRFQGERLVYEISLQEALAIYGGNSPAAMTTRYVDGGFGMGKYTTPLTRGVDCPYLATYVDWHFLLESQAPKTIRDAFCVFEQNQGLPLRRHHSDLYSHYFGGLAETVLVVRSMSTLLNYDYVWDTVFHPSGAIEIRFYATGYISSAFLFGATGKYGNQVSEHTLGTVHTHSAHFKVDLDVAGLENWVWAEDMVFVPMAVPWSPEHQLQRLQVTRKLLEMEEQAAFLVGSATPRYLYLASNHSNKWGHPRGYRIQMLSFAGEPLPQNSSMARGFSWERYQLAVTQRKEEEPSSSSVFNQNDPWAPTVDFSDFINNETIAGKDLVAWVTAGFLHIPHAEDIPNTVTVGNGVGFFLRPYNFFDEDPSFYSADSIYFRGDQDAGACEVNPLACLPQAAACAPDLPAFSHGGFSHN
As to the kind of experiment: SSAO enzyme inhibition assay (benzylamine substrate; hydrogen peroxide/HRP-coupled or 14C-aldehyde detection). The format is biochemical. As to conditions: SSAO inhibitory activity; recombinant human SSAO, RT. Here is the method: All primary assays were performed at RT. with purified recombinantly expressed human SSAO. Enzyme was prepared essentially as described in Öhman et al. (Protein Expression and Purification 46 (2006) 321-331). In addition, secondary- and selectivity assays were performed using SSAO prepared from various tissues or purified rat recombinant SSAO. The enzyme activity was assayed with benzylamine as substrate by measuring either benzaldehyde production, using ^14C-labeled substrate, or by utilizing the production of hydrogen peroxide in a horseradish peroxidase (HRP) coupled reaction. Briefly, test compounds were dissolved in dimethyl sulfoxide (DMSO) to a concentration of 10 mM. Dose-response measurements were assayed by either creating 1:10 serial dilutions in DMSO to produce a 7 point curve or by making 1:3 serial dilutions in DMSO to produce 11 point curves. The top concentrations were adjusted depending on the potency of the compounds and subsequent dilution in reaction buffer yielded a final DMSO concentration ≤2%.
In a horseradish peroxidase (HRP) coupled reaction, hydrogen peroxide oxidation of 10-acetyl-3,7-dihydroxyphenoxazine produced resorufin, which is a highly fluorescent compound (Zhout and Panchuk-Voloshina. Analytical Biochemistry 253 (1997) 169-174; Amplex® Red Hydrogen Peroxide/peroxidase Assay kit, Invitrogen A22188). Enzyme and compounds in 50 mM sodium phosphate, pH 7.4 were set to pre-incubate in flat-bottomed microtiter plates for approximately 15 min before initiating the reaction by addition of a mixture of HRP, benzylamine and Amplex reagent. Benzylamine concentration was fixed at a concentration corresponding to the Michaelis constant, determined using standard procedures. Fluorescence intensity was then measured at several time points during 1-2 h, exciting at 544 nm and reading the emission at 590 nm. For the human SSAO assay final concentrations of the reagents in the assay wells were: SSAO enzyme 1 ug/mL, benzylamine 100 uM, Amplex reagent 20 uM, HRP 0.1 U/mL and varying concentrations of test compound. The inhibition was measured as % decrease of the signal compared to a control without inhibitor (only diluted DMSO). The background signal from a sample containing no SSAO enzyme was subtracted from all data points. Data was fitted to a four parameter logistic model and IC50 values were calculated using the GraphPad Prism 4 or XLfit 4 programs.
SSAO activity was assayed using […] benzylamine and analysed by measuring radioactive benzaldehyde. In a white 96-well optiplate (Packard), 20 uL of diluted test compound was pre-incubated at RT with 20 uL SSAO enzyme for approximately 15 min with continuous agitation. All dilutions were made with PBS. The reaction was initiated by adding 20 uL of the benzylamine substrate solution containing Benzylamine hydrochloride (CFA589, GE Healthcare). The plate was incubated for 1 h as above after which the reaction was stopped by acidification (10 uL 1M aq HCl). Then 90 uL Micro Scint-E solution (Perkin-Elmer) was added to each well and the plate was continuously mixed for 15 min. Phase separation occurred instantly and activity was read in a Topcount scintillation counter (Perkin-Elmer). In the final reaction well, the human recombinant SSAO concentration was 10 ug/mL. In order to optimize sensitivity, the substrate concentration was decreased as compared to the HRP coupled assay in order to get a higher fraction of radioactive product. In the human SSAO assay, benzylamine concentration was 40 uM (0.2uCi/mL). Data was analysed as above.

The structures appear in SMILES notation. pIC50: −log10 of the molar value.

For `Fc1ccc(-n2c(-c3ccc(N4CCOCC4)nc3)nc3ccncc32)nc1` [Compound 1, 4-{5-[3-(5-Fluoropyridin-2-yl)-3H-imidazo[4,5-c]pyridin-2-yl]pyridin-2-yl}morpholine], the pIC50 was 6.70 to 7.30.

In the case of `Cc1cc(N2CCOCC2)ncc1-c1nc2ccncc2n1-c1ccc(F)cc1F` [Compound 2, 4-{5-[3-(2,4-Difluorophenyl)-3H-imidazo[4,5-c]pyridin-2-yl]-4-methylpyridin-2-yl}morpholine], the pIC50 is > 7.30. For `Fc1ccc(-n2c(-c3cnc(NC4CCOCC4)nc3)nc3ccncc32)c(F)c1` [Compound 3, 5-[3-(2,4-Difluorophenyl)-3H-imidazo[4,5-c]pyridin-2-yl]-N-(oxan-4-yl)pyrimidin-2-amine], the pIC50 is 6.70 to 7.30. For `CCN(CC)c1ncc(-c2nc3ccncc3n2-c2ccc(C)nc2)cn1` [Compound 4, N,N-Diethyl-5-[3-(6-methylpyridin-3-yl)-3H-imidazo[4,5-c]pyridin-2-yl]pyrimidin-2-amine] the value was 6.70 to 7.30; for `CCN(CC)c1ncc(-c2nc3ccncc3n2-c2ccc(F)cc2)cn1` [Compound 5, N,N-Diethyl-5-[3-(4-fluorophenyl)-3H-imidazo[4,5-c]pyridin-2-yl]pyrimidin-2-amine], > 7.30.

As for `CCN(CC)c1ncc(-c2nc3ccncc3n2-c2ccc(C)cc2)cn1` [Compound 6, N,N-Diethyl-5-[3-(4-methylphenyl)-3H-imidazo[4,5-c]pyridin-2-yl]pyrimidin-2-amine], the pIC50 was > 7.30. For `CCN(CC)c1ncc(-c2nc3ccncc3n2-c2ccc(C)cn2)cn1` [Compound 7, N,N-Diethyl-5-[3-(5-methylpyridin-2-yl)-3H-imidazo[4,5-c]pyridin-2-yl]pyrimidin-2-amine] the value was 6.70 to 7.30; for `Cc1ccc(-n2c(-c3cnc(N4CCOCC4)cc3C)nc3ccncc32)c(F)c1` [Compound 8, 4-{5-[3-(2-Fluoro-4-methylphenyl)-3H-imidazo[4,5-c]pyridin-2-yl]-4-methylpyridin-2-yl}morpholine], > 7.30; for `Cc1cc(N2CCOCC2)ncc1-c1nc2ccncc2n1-c1ccc(Cl)cc1` [Compound 9, 4-{5-[3-(4-Chlorophenyl)-3H-imidazo[4,5-c]pyridin-2-yl]-4-methylpyridin-2-yl}morpholine], > 7.30. Turning to `Cc1ccc(-n2c(-c3ccc(N4CCC(F)(F)CC4)nc3)nc3ccncc32)cc1` [Compound 11, 2-(4,4-Difluoropiperidin-1-yl)-5-[3-(4-methylphenyl)-3H-imidazo[4,5-c]pyridin-2-yl]pyridine], the pIC50 was > 7.30. For the compound `Cc1ccc(-n2c(-c3cnc(N4CCOCC4)cc3C)nc3ccncc32)nc1` [Compound 13, 4-{4-Methyl-5-[3-(5-methylpyridin-2-yl)-3H-imidazo[4,5-c]pyridin-2-yl]pyridin-2-yl}morpholine], the pIC50 is 6.70 to 7.30.

In the case of `Cc1cc(N2CCOCC2)ncc1-c1nc2ccncc2n1-c1ccc(F)cn1` [Compound 14, 4-{5-[3-(5-Fluoropyridin-2-yl)-3H-imidazo[4,5-c]pyridin-2-yl]-4-methylpyridin-2-yl}morpholine; tris(trifluoroacetic acid)], the negative logarithm of the IC50 (pIC50) is 5.92 to 6.70. With `Fc1ccc(-n2c(-c3ccc(N4CCSCC4)nc3)nc3ccncc32)cc1` [Compound 16, 4-{5-[3-(4-Fluorophenyl)-3H-imidazo[4,5-c]pyridin-2-yl]pyridin-2-yl}thiomorpholine] the figure was > 7.30; with `Fc1ccc(-n2c(-c3ccc(NCCN4CCOCC4)nc3)nc3ccncc32)cc1` [Compound 20, 5-[3-(4-Fluorophenyl)-3H-imidazo[4,5-c]pyridin-2-yl]-N-[2-(morpholin-4-yl)ethyl]pyridin-2-amine], > 7.30.

For the compound `Fc1ccc(-n2c(-c3ccc(NC4CC4)nc3)nc3ccncc32)cc1` [Compound 22, N-Cyclopropyl-5-[3-(4-fluorophenyl)-3H-imidazo[4,5-c]pyridin-2-yl]pyridin-2-amine], the pIC50 was > 7.30.

As to `Cc1ccc(-n2c(-c3ccc(NC4CC4)nc3)nc3ccncc32)cn1` [Compound 23, N-Cyclopropyl-5-[3-(6-methylpyridin-3-yl)-3H-imidazo[4,5-c]pyridin-2-yl]pyridin-2-amine], the pIC50 was 5.92 to 6.70.

As to `Cc1ccc(-n2c(-c3ccc(NC(C)C)nc3)nc3ccncc32)cc1` [Compound 24, 5-[3-(4-Methylphenyl)-3H-imidazo[4,5-c]pyridin-2-yl]-N-(propan-2-yl)pyridin-2-amine], the pIC50 was > 7.30.

For `Cc1ccc(-n2c(-c3cnc(N4CCCC4)nc3)nc3ccncc32)cn1` [Compound 25, 5-[3-(6-Methylpyridin-3-yl)-3H-imidazo[4,5-c]pyridin-2-yl]-2-(pyrrolidin-1-yl)pyrimidine], the negative-log IC50 (pIC50) is 6.70 to 7.30. With `Cc1ccc(-n2c(-c3cnc(N4CCCC4)nc3)nc3ccncc32)nc1` [Compound 26, 5-[3-(5-Methylpyridin-2-yl)-3H-imidazo[4,5-c]pyridin-2-yl]-2-(pyrrolidin-1-yl)pyrimidine] the figure was 6.70 to 7.30; with `Fc1ccc(-n2c(-c3cnc(N4CCCC4)nc3)nc3ccncc32)nc1` [Compound 27, 5-[3-(5-Fluoropyridin-2-yl)-3H-imidazo[4,5-c]pyridin-2-yl]-2-(pyrrolidin-1-yl)pyrimidine], 6.70 to 7.30.

Regarding `Cc1ccc(-n2c(-c3ccc(N4CCOCC4)cc3)nc3ccncc32)cn1` [Compound 28, 4-{4-[3-(6-Methylpyridin-3-yl)-3H-imidazo[4,5-c]pyridin-2-yl]phenyl}morpholine], the pIC50 is 6.70 to 7.30. Take `Cc1ccc(-n2c(-c3cnc(N4CCCC4)nc3)nc3ccncc32)cc1` [Compound 29, 5-[3-(4-Methylphenyl)-3H-imidazo[4,5-c]pyridin-2-yl]-2-(pyrrolidin-1-yl)pyrimidine]: the pIC50 was > 7.30. In the case of `Cc1ccc(-n2c(-c3ccc(N4CCOCC4)cc3)nc3ccncc32)nc1` [Compound 30, 4-{4-[3-(5-Methylpyridin-2-yl)-3H-imidazo[4,5-c]pyridin-2-yl]phenyl}morpholine], the pIC50 was 5.92 to 6.70.

For `Cc1ccc(-n2c(-c3ccc(N4CCCC4)cc3)nc3ccncc32)cn1` [Compound 31, 2-Methyl-5-{2-[4-(pyrrolidin-1-yl)phenyl]-3H-imidazo[4,5-c]pyridin-3-yl}pyridine], the pIC50 was > 7.30. With `Cc1ccc(-n2c(-c3ccc(N4CCCC4)cc3F)nc3ccncc32)cn1` [Compound 32, 5-{2-[2-Fluoro-4-(pyrrolidin-1-yl)phenyl]-3H-imidazo[4,5-c]pyridin-3-yl}-2-methylpyridine] the figure was > 7.30. Take `Cc1ccc(-n2c(-c3ccc(N4CCOCC4)cc3F)nc3ccncc32)cn1` [Compound 33, 4-{3-Fluoro-4-[3-(6-methylpyridin-3-yl)-3H-imidazo[4,5-c]pyridin-2-yl]phenyl}morpholine]: the pIC50 is 6.70 to 7.30.
